Patent US20090226527A1, “Particulate-stabilized injectable pharmacutical compositions of posaconazole” (priority 2004, published 2009)
Converted amounts (≈) assume the structure as drawn.

Test system: infectious agents (strains tested)
Experiment: organism not typed
Type: cell-based

**Q.** Which results are given for `CCC(C)n1ncn(-c2ccc(N3CCN(c4ccc(OCC5COC(Cn6cncn6)(c6ccc(Cl)cc6Cl)O5)cc4)CC3)cc2)c1=O` (stereo not shown) [Itraconazole]?
**A.** MIC (Absidia spp, read-out: Geometric Mean MIC): 0.229 µg/mL (≈ 0.325 µM); MIC (Absidia spp, read-out: MIC[90]): 0.063 to 2 µg/mL (≈ 0.0893 to 2.83 µM); MIC (Alternaria spp, read-out: Geometric Mean MIC): 0.326 µg/mL (≈ 0.462 µM); MIC (Alternaria spp, read-out: MIC[90]): 1 µg/mL (≈ 1.42 µM); MIC (Apophysomyces spp, read-out: Geometric Mean MIC): 0.707 µg/mL (≈ 1 µM); MIC (Apophysomyces spp, read-out: MIC[90]): 0.031 to 8 µg/mL (≈ 0.0439 to 11.3 µM); MIC (Arthroderma terrestre, Trichophyton terrestre, read-out: Geometric Mean MIC): 0.25 µg/mL (≈ 0.354 µM); MIC (Arthroderma terrestre, Trichophyton terrestre, read-out: MIC[90]): 0.25 µg/mL (≈ 0.354 µM); MIC (Aspergillus flavus, read-out: Geometric Mean MIC): 0.213 µg/mL (≈ 0.302 µM); MIC (Aspergillus flavus, read-out: MIC[90]): 1 µg/mL (≈ 1.42 µM); MIC (Aspergillus fumigatus, read-out: Geometric Mean MIC): 0.397 µg/mL (≈ 0.563 µM); MIC (Aspergillus fumigatus, read-out: MIC[90]): 1 µg/mL (≈ 1.42 µM); MIC (Aspergillus nidulans, read-out: Geometric Mean MIC): 0.186 µg/mL (≈ 0.264 µM); MIC (Aspergillus nidulans, read-out: MIC[90]): 0.5 µg/mL (≈ 0.709 µM); MIC (Aspergillus niger, read-out: Geometric Mean MIC): 0.834 µg/mL (≈ 1.18 µM); MIC (Aspergillus niger, read-out: MIC[90]): 2 µg/mL (≈ 2.83 µM); MIC (Aspergillus sydowii, read-out: Geometric Mean MIC): 0.5 µg/mL (≈ 0.709 µM); MIC (Aspergillus sydowii, read-out: MIC[90]): 0.125 to 2 µg/mL (≈ 0.177 to 2.83 µM); MIC (Aspergillus terreus, read-out: Geometric Mean MIC): 0.229 µg/mL (≈ 0.325 µM); MIC (Aspergillus terreus, read-out: MIC[90]): 0.5 µg/mL (≈ 0.709 µM); MIC (Aspergillus ustus, read-out: Geometric Mean MIC): 0.906 µg/mL (≈ 1.28 µM); MIC (Aspergillus ustus, read-out: MIC[90]): 0.125 to 2 µg/mL (≈ 0.177 to 2.83 µM); MIC (Bipolaris spp, read-out: Geometric Mean MIC): 0.25 µg/mL (≈ 0.354 µM); MIC (Bipolaris spp, read-out: MIC[90]): 0.25 µg/mL (≈ 0.354 µM); MIC (Bjerkandera adusta, read-out: Geometric Mean MIC): 0.057 µg/mL (≈ 0.0808 µM); MIC (Bjerkandera adusta, read-out: MIC[90]): 0.063 µg/mL (≈ 0.0893 µM); MIC (Blastomyces dermatitidis, read-out: Geometric Mean MIC): 0.045 µg/mL (≈ 0.0638 µM); MIC (Blastomyces dermatitidis, read-out: MIC[90]): 2 µg/mL (≈ 2.83 µM); MIC (Candida albicans, read-out: Geometric Mean MIC): 0.064 µg/mL (≈ 0.0907 µM); MIC (Candida albicans, read-out: MIC[90]): 0.25 µg/mL (≈ 0.354 µM); MIC (Candida dubliniensis, read-out: Geometric Mean MIC): 0.107 µg/mL (≈ 0.152 µM); MIC (Candida dubliniensis, read-out: MIC[90]): 0.5 µg/mL (≈ 0.709 µM); MIC (Candida tropicalis, read-out: Geometric Mean MIC): 0.167 µg/mL (≈ 0.237 µM); MIC (Candida tropicalis, read-out: MIC[90]): 0.5 µg/mL (≈ 0.709 µM); MIC (Clavispora lusitaniae, Candida lusitaniae, read-out: Geometric Mean MIC): 0.216 µg/mL (≈ 0.306 µM); MIC (Clavispora lusitaniae, Candida lusitaniae, read-out: MIC[90]): 1 µg/mL (≈ 1.42 µM); MIC (Coccidioides immitis, read-out: Geometric Mean MIC, Coccidioides immitis): 0.198 µg/mL (≈ 0.281 µM); MIC (Coccidioides immitis, read-out: MIC[90], Coccidioides immitis): 0.25 µg/mL (≈ 0.354 µM); MIC (Cryptococcus neoformans, read-out: Geometric Mean MIC): 0.444 µg/mL (≈ 0.629 µM); MIC (Cryptococcus neoformans, read-out: MIC[90]): 4 µg/mL (≈ 5.67 µM); MIC (Curvularia spp, read-out: Geometric Mean MIC): 0.5 µg/mL (≈ 0.709 µM); MIC (Curvularia spp, read-out: MIC[90]): 0.5 µg/mL (≈ 0.709 µM); MIC (Debaryomyces hansenii, Candida famata, read-out: Geometric Mean MIC): 0.348 µg/mL (≈ 0.493 µM); MIC (Debaryomyces hansenii, Candida famata, read-out: MIC[90]): 1 µg/mL (≈ 1.42 µM); MIC (Diutina rugosa, Candida rugosa, read-out: Geometric Mean MIC): 0.196 µg/mL (≈ 0.278 µM); MIC (Diutina rugosa, Candida rugosa, read-out: MIC[90]): 4 µg/mL (≈ 5.67 µM); MIC (Dujonia zeylanoides, Candida zeylanoides, read-out: Geometric Mean MIC): 0.105 µg/mL (≈ 0.149 µM); MIC (Dujonia zeylanoides, Candida zeylanoides, read-out: MIC[90]): 0.031 to 0.5 µg/mL (≈ 0.0439 to 0.709 µM); MIC (Epidermophyton floccosum, read-out: Geometric Mean MIC): 0.088 µg/mL (≈ 0.125 µM); MIC (Epidermophyton floccosum, read-out: MIC[90]): 32 µg/mL (≈ 45.3 µM); MIC (Exophiala dermatidis, read-out: Geometric Mean MIC): 1 µg/mL (≈ 1.42 µM); MIC (Exophiala dermatidis, read-out: MIC[90]): 1 µg/mL (≈ 1.42 µM); MIC (Exophiala dermatitidis, Wangiella dermatitidis, read-out: Geometric Mean MIC): 0.5 µg/mL (≈ 0.709 µM); MIC (Exophiala dermatitidis, Wangiella dermatitidis, read-out: MIC[90]): 0.063 to 1 µg/mL (≈ 0.0893 to 1.42 µM); MIC (Exophiala jeanselmei, read-out: Geometric Mean MIC): 0.467 µg/mL (≈ 0.662 µM); MIC (Exophiala jeanselmei, read-out: MIC[90]): 1 µg/mL (≈ 1.42 µM); MIC (Exophiala moniliae, read-out: Geometric Mean MIC): 0.031 µg/mL (≈ 0.0439 µM); MIC (Exophiala moniliae, read-out: MIC[90]): 0.031 µg/mL (≈ 0.0439 µM); MIC (Fonsecae pedrosoi, read-out: Geometric Mean MIC): 0.063 µg/mL (≈ 0.0893 µM); MIC (Fonsecae pedrosoi, read-out: MIC[90]): 0.008 to 0.5 µg/mL (≈ 0.0113 to 0.709 µM); MIC (Fusarium spp, read-out: Geometric Mean MIC): 13.3 µg/mL (≈ 18.8 µM); MIC (Fusarium spp, read-out: MIC[90]): 16 µg/mL (≈ 22.7 µM); MIC (Hansenula anomala, Pichia anomala, read-out: Geometric Mean MIC): 0.375 µg/mL (≈ 0.531 µM); MIC (Hansenula anomala, Pichia anomala, read-out: MIC[90]): 1 µg/mL (≈ 1.42 µM); MIC (Histoplasma capsulatum, read-out: Geometric Mean MIC, Histoplasma capsulatum): 0.018 µg/mL (≈ 0.0255 µM); MIC (Histoplasma capsulatum, read-out: MIC[90], Histoplasma capsulatum): 0.063 µg/mL (≈ 0.0893 µM); MIC (Kluyveromyces marxianus, Candida kefyr, read-out: Geometric Mean MIC): 0.188 µg/mL (≈ 0.266 µM); MIC (Kluyveromyces marxianus, Candida kefyr, read-out: MIC[90]): 0.5 µg/mL (≈ 0.709 µM); MIC (Kluyveromyces marxianus, read-out: Geometric Mean MIC): 0.07 µg/mL (≈ 0.0992 µM); MIC (Kluyveromyces marxianus, read-out: MIC[90]): 0.031 to 0.125 µg/mL (≈ 0.0439 to 0.177 µM); MIC (Lodderomyces parapsilosis, Candida parapsilosis, read-out: Geometric Mean MIC): 0.161 µg/mL (≈ 0.228 µM); MIC (Lodderomyces parapsilosis, Candida parapsilosis, read-out: MIC[90]): 0.5 µg/mL (≈ 0.709 µM); MIC (Meyerozyma guilliermondii, Candida guilliermondii, read-out: Geometric Mean MIC): 0.479 µg/mL (≈ 0.679 µM); MIC (Meyerozyma guilliermondii, Candida guilliermondii, read-out: MIC[90]): 1 µg/mL (≈ 1.42 µM); MIC (Microsporum audouinii, read-out: Geometric Mean MIC): 0.125 µg/mL (≈ 0.177 µM); MIC (Microsporum audouinii, read-out: MIC[90]): 0.125 µg/mL (≈ 0.177 µM); MIC (Microsporum canis, read-out: Geometric Mean MIC): 0.041 µg/mL (≈ 0.0581 µM); MIC (Microsporum canis, read-out: MIC[90]): 2 µg/mL (≈ 2.83 µM); MIC (Mucor spp, read-out: Geometric Mean MIC): 2.38 µg/mL (≈ 3.37 µM); MIC (Mucor spp, read-out: MIC[90]): 16 µg/mL (≈ 22.7 µM); MIC (Nakaseomyces glabratus, Candida glabrata, read-out: Geometric Mean MIC): 0.853 µg/mL (≈ 1.21 µM); MIC (Nakaseomyces glabratus, Candida glabrata, read-out: MIC[90]): 4 µg/mL (≈ 5.67 µM); MIC (Nannizzia fulva, Microsporum fulvum, read-out: Geometric Mean MIC): 4 µg/mL (≈ 5.67 µM); MIC (Nannizzia fulva, Microsporum fulvum, read-out: MIC[90]): 4 µg/mL (≈ 5.67 µM); MIC (Nannizzia gypsea, Microsporum gypseum, read-out: Geometric Mean MIC): 0.044 µg/mL (≈ 0.0624 µM); MIC (Nannizzia gypsea, Microsporum gypseum, read-out: MIC[90]): 0.016 to 0.5 µg/mL (≈ 0.0227 to 0.709 µM); MIC (Nannizzia persicolor, Microsporum persicolor, read-out: Geometric Mean MIC): 0.5 µg/mL (≈ 0.709 µM); MIC (Nannizzia persicolor, Microsporum persicolor, read-out: MIC[90]): 0.5 µg/mL (≈ 0.709 µM); MIC (Paecilomyces spp, read-out: Geometric Mean MIC): 0.64 µg/mL (≈ 0.907 µM); MIC (Paecilomyces spp, read-out: MIC[90]): 2 µg/mL (≈ 2.83 µM); MIC (Papiliotrema laurentii, Cryptococcus laurentii, read-out: Geometric Mean MIC): 0.397 µg/mL (≈ 0.563 µM); MIC (Papiliotrema laurentii, Cryptococcus laurentii, read-out: MIC[90]): 0.25 to 0.5 µg/mL (≈ 0.354 to 0.709 µM); MIC (Paracoccidioides brasiliensis, read-out: Geometric Mean MIC, Paracoccidioides brasiliensis): 0.025 µg/mL (≈ 0.0354 µM); MIC (Paracoccidioides brasiliensis, read-out: MIC[90], Paracoccidioides brasiliensis): 0.063 µg/mL (≈ 0.0893 µM); MIC (Penicillium spp, read-out: Geometric Mean MIC): 0.853 µg/mL (≈ 1.21 µM); MIC (Penicillium spp, read-out: MIC[90]): 2 µg/mL (≈ 2.83 µM); MIC (Pichia kudriavzevii, Candida krusei, read-out: Geometric Mean MIC): 0.576 µg/mL (≈ 0.816 µM); MIC (Pichia kudriavzevii, Candida krusei, read-out: MIC[90]): 1 µg/mL (≈ 1.42 µM); MIC (Pleurothecium obovoideum, Ramichloridium obovoideum, read-out: Geometric Mean MIC): 0.016 µg/mL (≈ 0.0227 µM); MIC (Pleurothecium obovoideum, Ramichloridium obovoideum, read-out: MIC[90]): 0.016 µg/mL (≈ 0.0227 µM); MIC (Rhizomucor spp, read-out: Geometric Mean MIC): 0.016 µg/mL (≈ 0.0227 µM); MIC (Rhizomucor spp, read-out: MIC[90]): 0.016 µg/mL (≈ 0.0227 µM); MIC (Rhizopus spp, read-out: Geometric Mean MIC): 3.28 µg/mL (≈ 4.65 µM); MIC (Rhizopus spp, read-out: MIC[90]): 16 µg/mL (≈ 22.7 µM); MIC (Saccharomyces cerevisiae, read-out: Geometric Mean MIC): 0.418 µg/mL (≈ 0.592 µM); MIC (Saccharomyces cerevisiae, read-out: MIC[90]): 2 µg/mL (≈ 2.83 µM); MIC (Scedosporium apiospermum, read-out: Geometric Mean MIC): 1.34 µg/mL (≈ 1.9 µM); MIC (Scedosporium apiospermum, read-out: MIC[90]): 32 µg/mL (≈ 45.3 µM); MIC (Scedosporium boydii, Pseudallescheria boydii, read-out: Geometric Mean MIC): 0.506 µg/mL (≈ 0.717 µM); MIC (Scedosporium boydii, Pseudallescheria boydii, read-out: MIC[90]): 1 µg/mL (≈ 1.42 µM); MIC (Sporothrix schenckii, read-out: Geometric Mean MIC): 0.302 µg/mL (≈ 0.428 µM); MIC (Sporothrix schenckii, read-out: MIC[90]): 0.5 µg/mL (≈ 0.709 µM); MIC (Trichophyton mentagrophytes, read-out: Geometric Mean MIC): 0.041 µg/mL (≈ 0.0581 µM); MIC (Trichophyton mentagrophytes, read-out: MIC[90]): 0.25 µg/mL (≈ 0.354 µM); MIC (Trichophyton rubrum, Trichophyton raubitschekii, read-out: Geometric Mean MIC): 0.25 µg/mL (≈ 0.354 µM); MIC (Trichophyton rubrum, Trichophyton raubitschekii, read-out: MIC[90]): 0.25 µg/mL (≈ 0.354 µM); MIC (Trichophyton rubrum, read-out: Geometric Mean MIC): 0.074 µg/mL (≈ 0.105 µM); MIC (Trichophyton rubrum, read-out: MIC[90]): 0.25 µg/mL (≈ 0.354 µM); MIC (Trichophyton soudanense, read-out: Geometric Mean MIC): 4 µg/mL (≈ 5.67 µM); MIC (Trichophyton soudanense, read-out: MIC[90]): 4 µg/mL (≈ 5.67 µM); MIC (Trichophyton tonsurans, read-out: Geometric Mean MIC): 0.036 µg/mL (≈ 0.051 µM); MIC (Trichophyton tonsurans, read-out: MIC[90]): 0.063 µg/mL (≈ 0.0893 µM); MIC (Trichosporon spp, read-out: Geometric Mean MIC): 1.12 µg/mL (≈ 1.59 µM); MIC (Trichosporon spp, read-out: MIC[90]): 0.5 to 2 µg/mL (≈ 0.709 to 2.83 µM)
